According to US20120309790A1, “TREATMENT OF DERM[…] CONDITIONS” (SANOFI, priority 2010, published 2012):
Values joined by “and” are separate entries in the source; they are usually repeats but may differ in a detail not shown here. Equal entries are not always repeated. Structures can show the parent of a compound that is named as a salt.

Tested on: Ascaris suum antigen-induced wheal
Test: Ascaris suum antigen-induced intradermal wheal formation in nonhuman primates
Assay type: in vivo, Macaca fascicularis
Settings: for Mean wheal area: mean of 12 animals, 15 minutes, A suum alone 119.626; for Individual calculated wheal area: single animals, intradermal, 15 minutes after injection
Description: The species used for this study were male, nonhuman primates, Macaca fascicularis 5 to 10 years of age. Each animal was identified by a unique number tattoo located on its chest. The group size was 12. Animals were supplied by Charles River and housed under conditions outlined in the NIH Guide for Care and Use of Laboratory Animals in compliance with the USDA Laboratory Animal Welfare Act, in a fully accredited AAALAC facility. Purina (product 5038) primate chow was fed twice daily, supplemented with fruit, vegetables and treats. Water was available ad libitum.
Compound A formulated in a solution containing 0.22 mg/ml A sum (Ascaris sum) in phosphate buffered saline was dosed at 0.004, 0.0004, 0.00004, and 0.000004 mg per injection site at a volume of 40 μl.
Diphenhydramine hydrochloride was formulated in a solution containing 0.22 mg/ml A suum in phosphate buffered saline. Diphenhydramine hydrochloride was dosed at 0.4 mg per injection site at a volume of 40 μl.
Ascaris suum extract (part number XPB33X1A5, lot 30575) was supplied by Greer Laboratories. The extract was reconstituted with distilled water to a final concentration of 10 mg/ml of stock solution.
Animals were anesthetized by an intramuscular (IM) injection of 5 to 10 mg/kg ketamine mixed with 0.5 to 0.75 mg/kg medetomidine. The animal's chest and abdomen were shaved and wiped clean with alcohol. The following injections (40 μl each) were given intradermally: • PBS (phosphate buffered saline) • Ascaris 8.8×10^−3 mg/ml • Ascaris 8.8×10^−3 mg/ml+0.4 mg Diphenhydramine hydrochloride • Ascaris 8.8×10^−3 mg/ml+0.004 mg SAR160719 • Ascaris 8.8×10^−3 mg/ml+0.0004 mg SAR160719 • Ascaris 8.8×10^−3 mg/ml+0.00004 mg SAR160719 • Ascaris 8.8×10^−3 mg/ml+0.000004 mg SAR160719
The reactions in the form of a wheal were measured 15 minutes after injection using vernier calipers. The wheal was measured along two diameters (D1 and D2) perpendicular to one another. The area of the wheal was calculated using the formula: […]
Mixed model with repeated measures was used to analyze the data, with wheal size for different treatment groups as the repeated measures, treatment as fixed effects, and animal as random effect. The correlation structure was selected to be compound symmetry. Robust covariance estimate was used to obtain the results.

SMILES | Antigen-induced wheal formation (co-injected with A suum intradermally, measured 15 minutes after injection) | Mean wheal area (A suum + 0.000004 mg per site) | Mean wheal area (A suum + 0.00004 mg per site) | Mean wheal area (A suum + 0.0004 mg per site) | Mean wheal area (A suum + 0.004 mg per site) | Individual calculated wheal area (A suum 8.8 × 10^−3 mg + 0.000004 mg per injection site) | Individual calculated wheal area (A suum 8.8 × 10^−3 mg + 0.00004 mg per injection site) | Individual calculated wheal area (A suum 8.8 × 10^−3 mg + 0.0004 mg per injection site) | Individual calculated wheal area (A suum 8.8 × 10^−3 mg + 0.004 mg per injection site) | Mean wheal area (A suum + 0.4 mg per site, hydrochloride) | Individual calculated wheal area (A suum 8.8 × 10^−3 mg + 0.4 mg per injection site, hydrochloride)
COCCn1cc(C(=O)N2CCC(c3cc(CN)ccc3F)CC2)c2c(OC(F)(F)F)ccc(F)c21 [Compound A, [4-(5-Aminomethyl-2-fluorophenyl)piperidine-1-yl][7-fluoro-1-(2-methoxyethyl)-4-trifluoromethoxy-1H-indol-3-yl]methanone] | reduced antigen-induced wheal formation | 105.510 mm^2 | 101.157 mm^2 | 97.680±8.012 mm^2 and 97.680 mm^2 | 102.390±9.645 mm^2 and 102.390 mm^2 | 110.302 mm^2 and 84.145 mm^2 and 132.750 mm^2 and 121.754 mm^2 and 86.601 mm^2 and 104.788 mm^2 and 134.800 mm^2 and 133.773 mm^2 and 85.779 mm^2 and 66.485 mm^2 and 115.005 mm^2 and 89.932 mm^2 | 67.209 mm^2 and 86.601 mm^2 and 168.586 mm^2 and 90.774 mm^2 (2×) and 106.610 mm^2 (2×) and 81.723 mm^2 and 107.527 mm^2 and 93.325 mm^2 and 79.337 mm^2 and 134.800 mm^2 | 112.171 mm^2 and 110.302 mm^2 and 158.388 mm^2 and 101.190 mm^2 and 103.882 mm^2 and 107.527 mm^2 and 87.428 mm^2 and 90.774 mm^2 and 100.300 mm^2 and 48.404 mm^2 and 56.752 mm^2 and 95.046 mm^2 | 67.938 mm^2 and 115.005 mm^2 and 159.506 mm^2 and 91.621 mm^2 and 84.960 mm^2 (2×) and 131.730 mm^2 and 88.259 mm^2 and 164.014 mm^2 and 99.415 mm^2 and 65.047 mm^2 and 76.211 mm^2 | – | –
CN(C)CCOC(c1ccccc1)c1ccccc1 [Diphenhydramine hydrochloride, reference compound] | – | – | – | – | – | – | – | – | – | 84.196±7.364 mm^2 and 84.196 mm^2 | 76.211 mm^2 and 116.914 mm^2 and 147.430 mm^2 and 62.219 mm^2 and 73.148 mm^2 and 82.527 mm^2 and 58.773 mm^2 and 67.209 mm^2 and 78.550 mm^2 and 65.764 mm^2 and 87.428 mm^2 and 94.183 mm^2
